The source of these data is PMC10818921, “Validation of Liquid Chromatography Coupled with Tandem Mass Spectrometry for the Determination of 12 Tyrosine Kinase Inhibitors (TKIs) and Their Application to Therapeutic Drug Monitoring in Adult and Pediatric Populations” (Pharmaceutics, 2023).

Like-named read-outs stand apart in the source and are kept apart here.

The conditions of data set [1]: cited from earlier work.
The conditions of data set [2]: cited from earlier work; for Target Concentrations, Cmin / Target Concentrations, Cmax: adults.
The conditions of data set [3]: cited from earlier work. This is another data set of the same source.
The nature of data set [4]: Therapeutic drug monitoring: steady-state residual plasma concentrations by LC-MS/MS. In kind it is in vivo, human. The following applies: for comparison of dose–weight-adjusted concentrations between adult and pediatric groups: Mann–Whitney test, p-value < 0.0001 where significant; for Concentration range CI 95% / IQR / Mean concentration / Median concentration: residual plasma concentration at steady state. Here is the method: For each calibration sample, an adapted volume of working solution was added and evaporated. Then, 150 µL of IS methanolic solution was added to 50 µL of plasma sample (blank plasma for calibration sample or patient plasma) to precipitate proteins. After vortex mixing and 10 min of centrifugation, the supernatant was transferred into injection vials, and 10 µL was injected into the chromatographic system.
Chromatography was performed on a Dionex Ultimate 3000 Pump (ThermoFisher, les Ulis, France) using a Kinetex C18 Polar column (100 × 2.1 mm, 2.6 µm particle size) heated at 40 °C. The mobile phase A was made with 2 mM of ammonium formate in 0.1% formic acid in ultra-pure water and stored at +4 °C for a maximum of one week. […] The gradient was set as follows: 10 to 40% of B from 0 to 1 min, then 40 to 90% of B in 1 min, and keeping this for 2 min before resetting to 10% B in 1 min. An equilibration time of one minute at 10% mobile phase B at the end of the chromatographic run allowed the column to be equilibrated before the next analysis.
The compounds were detected using an Altis® triple quadrupole tandem mass spectrometer (ThermoFisher Scientific, Les Ulis, France) equipped with an electrospray ionization (ESI) source set in positive ionization mode with a potential of +3.5 kV. Nitrogen was used as cladding and auxiliary gas at a pressure of 30 and 10 arbitrary units (AU), respectively. The collision gas, argon, was used at a pressure of 1.5 mTorr. The temperature of the ion transfer capillary was set at 350 °C. Data were collected in multiple reaction monitoring mode (MRM) with two transitions (m/z) per compound. Xcalibur® (v 4.2.47) and LC Quan® (v 2.7.0) software (ThermoFisher Scientific) were used for data acquisition and processing.
The study was conducted in accordance with the Declaration of Helsinki and approved by the local ethics committee.
Populations treated with each TKI are described in Table 4.
Blood samples were collected in a steady state (i.e., a minimum of 2 weeks after the initiation of therapy or dose adjustment) just prior to dosing. The samples were collected in lithium heparin tubes without a separator and were immediately centrifuged, decanted, and frozen at −20 °C before LC-MS/MS analysis.
A Mann–Whitney […] was performed to compare dose–weight-adjusted concentrations between adult and pediatric groups. Results are illustrated in box-and-whiskers plots. GraphPad Prism v.8.3.0 Software (San Diego, CA, USA) was used to process and visualize data.

Data set [5] is described as follows: Stability of TKI methanolic solutions, 7 days at −20 °C. It counts as physicochemical. The settings on record: for bias, stability of TKI methanolic solutions: QCs made with 7-day-old methanolic solutions; for storage of methanolic working solutions: −20 °C for 7 days. Here is the method: To evaluate TKI stability in methanolic solutions, the four QC levels were realized with seven-day-old solutions and were analyzed six times. The accuracy and precision of the samples have to be in conformity with less than 15% variation.

For `CC(=O)Nc1cccc(-n2c(=O)n(C3CC3)c(=O)c3c(Nc4ccc(I)cc4F)n(C)c(=O)c(C)c32)c1` [Trametinib, trametinib], the toxicity reported result in data set [1] (children treated for glioma) is reported as “signs of cutaneous toxicity”. Also, in data set [1], the adverse effects described result is “Skin disorders (acneiform eruptions and rash)”. In data set [2], the “Target Concentrations, Cmin” value is given as “Cmin ≥ 10.6 ng/mL” and the minimum effective concentrations is given as 10 ng/mL. Moreover, the serum stability in data set [3] (−20 °C) is 20 months. Also, the “comparison of dose–weight-adjusted concentrations between adult and pediatric groups” value (“comparison” below) in data set [4] is “significantly lower in the adult group than in the pediatric group”. For the same compound, in data set [4] (adults), the “Dose–weight-adjusted mean concentration” value is given as 443.8 ng/mL/mg/kg, the “Dose–weight-adjusted median concentration” value came to 386.3 ng/mL/mg/kg, the “Concentration range CI 95%” value was “[11–13] ng/mL” and the IQR result is “[8–14] ng/mL”. In data set [4] (adults), the Mean concentration was 12.4 ng/mL and the Median concentration was determined as 11 ng/mL. Further, in data set [4] (children), the “Dose–weight-adjusted mean concentration” value is 578.4 ng/mL/mg/kg, the “Dose–weight-adjusted median concentration” value is 538.5 ng/mL/mg/kg, the “Concentration range CI 95%” value is “[11–14] ng/mL” and the IQR entry is “[6.5–17] ng/mL”. In data set [4] (children), the Mean concentration came to 12.6 ng/mL and the Median concentration was determined as 9.7 ng/mL.
Take `C[C@H]1Oc2cc(cnc2N)-c2c(nn(C)c2C#N)CN(C)C(=O)c2ccc(F)cc21` [Lorlatinib, lorlatinib]: the “Target Concentrations, Cmax” value in data set [2] was “Cmax = 575 ng/mL”. In data set [3] (−30 °C), the stable in plasma entry is “at least 2 months”.
`C=CC(=O)Nc1cc(Nc2nccc(-c3c[nH]c4ccccc34)n2)c(OC)cc1N(C)CCN(C)C` [AZ5104]: in data set [5], the “bias, stability of TKI methanolic solutions” value (shortened to “bias, stability”) is given as at least 15% and the “storage of methanolic working solutions” value is reported as “must be prepared extemporaneously”. Besides, in data set [4] (adults), the “Dose–weight-adjusted mean concentration” value is given as 25.8 ng/mL/mg/kg, the “Dose–weight-adjusted median concentration” value amounted to 21.7 ng/mL/mg/kg, the “Concentration range CI 95%” value was “[16–56] ng/mL” and the IQR result was “[11–47] ng/mL”. In addition, in data set [4] (adults), the Mean concentration was 32 ng/mL and the Median concentration amounted to 25 ng/mL.
As for `CC(C)(C)c1nc(-c2cccc(NS(=O)(=O)c3c(F)cccc3F)c2F)c(-c2ccnc(N)n2)s1` [Dabrafenib, dabrafenib], the adverse effects described result in data set [1] was “Skin disorders (acneiform eruptions and rash)”. In data set [2], the “Target Concentrations, Cmin” value was “Cmin ≥ 15 ng/mL”. Also, the stable in plasma result in data set [3] (−40 °C) is “more than 20 weeks”. Besides, the “comparison” value in data set [4] is reported as “not statistically different”. For the same compound, in data set [4] (adults), the “Dose–weight-adjusted mean concentration” value came out at 28.3 ng/mL/mg/kg, the “Dose–weight-adjusted median concentration” value was determined as 14 ng/mL/mg/kg, the “Concentration range CI 95%” value is “[88–122] ng/mL” and the IQR entry is “[29–114] ng/mL”. Also, in data set [4] (adults), the Mean concentration is 105.3 ng/mL and the Median concentration is 53.5 ng/mL. In addition, in data set [4] (children), the “Dose–weight-adjusted mean concentration” value turned out to be 62.3 ng/mL/mg/kg, the “Dose–weight-adjusted median concentration” value came to 19.1 ng/mL/mg/kg, the “Concentration range CI 95%” value was “[26–178] ng/mL” and the IQR result is “[15–131] ng/mL”. In data set [4] (children), the Mean concentration is 102.3 ng/mL and the Median concentration is reported as 18.4 ng/mL.
On to `COC(=O)N[C@@H](C)CNc1nccc(-c2cn(C(C)C)nc2-c2cc(Cl)cc(NS(C)(=O)=O)c2F)n1` [Encorafenib, encorafenib], for which the “Target Concentrations, Cmax” value in data set [2] is listed as “Cmax = 3100 ng/mL”. The “frozen stability in plasma” value in data set [3] is recorded as “at least 30 days”. For the same compound, in data set [4] (adults), the “Dose–weight-adjusted mean concentration” value was determined as 3.4 ng/mL/mg/kg, the “Dose–weight-adjusted median concentration” value worked out at 2.6 ng/mL/mg/kg, the “Concentration range CI 95%” value is “[16–21] ng/mL” and the IQR entry was “[10–22] ng/mL”. In data set [4] (adults), this compound registered a Mean concentration of 18.6 ng/mL and a Median concentration of 15 ng/mL.
As to `Cn1cnc2c(F)c(Nc3ccc(Br)cc3F)c(C(=O)NOCCO)cc21` [Binimetinib, binimetinib], the “Target Concentrations, Cmax” value in data set [2] was “Cmax = 654 ng/mL”. Also, the “frozen stability in plasma” value in data set [3] is “at least 30 days”. Also, the “comparison” value in data set [4] is “higher concentrations of binimetinib in adults”. For the same compound, in data set [4] (adults), the “Dose–weight-adjusted mean concentration” value was 48.8 ng/mL/mg/kg, the “Dose–weight-adjusted median concentration” value is 41.6 ng/mL/mg/kg, the “Concentration range CI 95%” value is “[51–64] ng/mL” and the IQR entry is “[38–69] ng/mL”. In data set [4] (adults), this compound returned a Mean concentration of 57.4 ng/mL and a Median concentration of 52 ng/mL. Further, in data set [4] (children), the “Dose–weight-adjusted mean concentration” value is reported as 17.5 ng/mL/mg/kg, the “Dose–weight-adjusted median concentration” value came out at 14.6 ng/mL/mg/kg, the “Concentration range CI 95%” value was “[37–204] ng/mL” and the IQR result was “[62–143] ng/mL”. In data set [4] (children), this compound came in with a Mean concentration of 120 ng/mL and a Median concentration of 100 ng/mL.
Consider `C=CC(=O)Nc1cc(Nc2nccc(-c3cn(C)c4ccccc34)n2)c(OC)cc1N(C)CCN(C)C` [Osimertinib, osimertinib], for which the “Target Concentrations, Cmin” value in data set [2] (40 mg dosage) is recorded as at least 90 ng/mL. Also, in data set [2] (80 mg dosage), the “Target Concentrations, Cmin” value is at least 160 ng/mL. In addition, in data set [5], the “bias, stability” value was at least 15% and the “storage of methanolic working solutions” value is on record as “must be prepared extemporaneously”. Further, the stability in plasma entry in data set [3] was “minimum of one month”. In data set [4] (adults), the “Dose–weight-adjusted mean concentration” value is 196.7 ng/mL/mg/kg, the “Dose–weight-adjusted median concentration” value came out at 211.4 ng/mL/mg/kg, the “Concentration range CI 95%” value was “[122–320] ng/mL” and the Mean concentration was found to be 221 ng/mL. In data set [4] (adults), this compound showed a Median concentration of 207 ng/mL.
For `C[C@@H](Oc1cc(-c2cnn(C3CCNCC3)c2)cnc1N)c1c(Cl)ccc(F)c1Cl` [Crizotinib, crizotinib], the “Target Concentrations, Cmin” value in data set [2] is given as “Cmin ≥ 235 ng/mL”. Moreover, in data set [5], the “bias, stability” value is on record as at least 15% and the “storage of methanolic working solutions” value was “must be prepared extemporaneously”. Moreover, in data set [5] (methanolic solutions, CQ3), the “stability at −20 °C for 7 days” value was “not stable”. Moreover, the stability in plasma entry in data set [3] is given as “minimum of one month”.
Turning to `CCc1cc2c(cc1N1CCC(N3CCOCC3)CC1)C(C)(C)c1[nH]c3cc(C#N)ccc3c1C2=O` [Alectinib, alectinib], in data set [4] (adults), the “Dose–weight-adjusted mean concentration” value was determined as 17.3 ng/mL/mg/kg, the “Dose–weight-adjusted median concentration” value turned out to be 16.7 ng/mL/mg/kg, the “Concentration range CI 95%” value was “[292–424] ng/mL” and the IQR result was “[302–408] ng/mL”. Also, in data set [4] (adults), the Mean concentration stood at 358 ng/mL and the Median concentration is 346 ng/mL.
In the case of `O=C(c1ccc(F)c(F)c1Nc1ccc(I)cc1F)N1CC(O)([C@@H]2CCCCN2)C1` [Cobimetinib, cobimetinib], the “Target Concentrations, Cmax” value in data set [2] is recorded as “Cmax = 270 ng/mL”. The stable in plasma result in data set [3] (−40 °C) is on record as “more than 20 weeks”. In data set [4], the “comparison” value is on record as “not statistically different”. Moreover, in data set [4] (adults), the “Dose–weight-adjusted mean concentration” value is reported as 145.7 ng/mL/mg/kg, the “Dose–weight-adjusted median concentration” value came to 138.1 ng/mL/mg/kg, the “Concentration range CI 95%” value is “[24–94] ng/mL” and the IQR entry was “[46.5–83] ng/mL”. In data set [4] (adults), the Mean concentration worked out at 59.3 ng/mL and the Median concentration was determined as 70 ng/mL. Further, in data set [4] (children), the “Dose–weight-adjusted mean concentration” value is 85.4 ng/mL/mg/kg, the “Dose–weight-adjusted median concentration” value turned out to be 62.6 ng/mL/mg/kg, the “Concentration range CI 95%” value is “[74–118] ng/mL” and the IQR entry is “[34–114] ng/mL”. Moreover, in data set [4] (children), the Mean concentration was determined as 96.3 ng/mL and the Median concentration was found to be 64.3 ng/mL.
